A word on the IC50: it is the concentration that inhibits the measured activity by half.

The source made the active and inactive calls. The calls are words filed in the database; no cut-off is given here.

The subject of one experiment is HeLa. Description: In vitro antiproliferative activity against human cervix adenocarcinoma (HeLa) cells. It is filed as functional, cell-based.
The species named for experiment [1] is Cavia porcellus. Kind of experiment: Phototoxicity (50 mg cm e-2) was evaluated; No phototoxicity. It is filed as functional, organism-based.
In the next experiment the test system is HL-60. Description: In vitro antiproliferative activity against human promyelocytic (HL-60) cells. It is filed as functional, cell-based.
In experiment [2] the test system is Cavia porcellus. Kind of experiment: Compound was evaluated for the erythema formation; +++ means severe erythema with edema. The class given is functional, organism-based.
The species named for experiment [3] is Cavia porcellus. Description: Phototoxicity (10 mg/cm**2) was evaluated; highly toxic. It is filed as functional, organism-based.

Turning to `COc1cc2oc3ccccc3c2c2oc(=O)cc(C)c12`, the IC50 with HeLa and in the experiment on HL-60 was greater than 20 µM throughout. In addition, the Phototoxicity entry in the experiment listed under Cavia porcellus [1] is “No phototoxicity”.
`Cc1cc(=O)oc2c1c(O)cc1oc3ccccc3c12`: the figures for the half-inhibitory concentration (IC50) in the experiment with HeLa and in the experiment on HL-60 were greater than 20 µM and 6.95 µM, respectively. Further, the Phototoxicity entry in the experiment filed under Cavia porcellus [1] was “No phototoxicity”.
Turning to `Cc1cc(=O)oc2c1c(OCCCN(C)C)cc1oc3ccccc3c12`, the IC50 with HeLa turned out to be 1.12 µM; with HL-60 it was 0.52 µM. Besides, in the experiment filed under Cavia porcellus [1], the Phototoxicity entry was “No phototoxicity”.
As to `COc1c2occc2cc2ccc(=O)oc12` [METHOXSALEN], the IC50 is 10 µM in the experiment on HeLa and 5.4 µM with HL-60. For the same molecule, in the experiment on Cavia porcellus [2], the Erythema formation entry is “Active”. For the same molecule, in the experiment listed under Cavia porcellus [3], the Phototoxicity result is “Toxic”.

The record behind these values is ChEMBL document CHEMBL1132756, “A new benzoangelicin with strong photobiological activity” (Bioorg Med Chem Lett, 2000).
